{"source": "patent US20090061022A1", "about": "“Pharmaceutical composition comprising arsenite for the treatment of malignancy” (priority 2004, published 2009)", "key": {"[1]": {"assay": "Maximum tolerated dose assessment after daily oral gavages for 14 days in the mouse", "type": "in vivo, CD-1 mice", "method": "The objective of this oral toxicity study was to establish a MTD after repeated administration of sodium meta-arsenite to mice.\n(§1) Ampoules of sodium meta-arsenite (dissolved in 10% (w/v) glucose in water) in concentrations of 1, 1.6, 2.6, 4.1 and 6.5 mg/ml were stored in a refrigerator in the dark. Based on the previous study, the following doses were selected: 10, 16, 26, and 41 and 65 mg/kg/day. Each dose was administered daily by oral gavages to groups of 4 male and 4 CD-1 mice for 14 days, followed by a 14-day recovery period.\nClinical signs were evaluated daily and body weights were recorded twice weekly. Scheduled termination was performed on day 29 (after 14 days of recovery). Macroscopic examination was performed on all animals."}, "[2]": {"assay": "Maximum tolerated dose assessment after daily oral gavages for 14 days in the rat", "type": "in vivo, Wistar rats", "settings": "for Findings / Findings (mortality): rat; for MTD (or LD10 value): rats, oral once daily 14 days, calculated", "method": "The objective of this oral toxicity study was to establish a MTD after repeated administration of sodium meta-arsenite to rats.\nas §1, with “1.2, 2.2, 3.8, 7.0” for “1, 1.6, 2.6, 4.1”, “12.6” for “6.5”, “6, 11, 19,” for “10, 16, 26,”, “35” for “41”, “63” for “65”, “female Wistar rats” for “CD-1 mice”\nClinical signs were evaluated daily, and body weights were recorded twice weekly. Scheduled termination was performed on day 29 (after 14 days of recovery). Macroscopic examination was performed on all animals."}, "[3]": {"assay": "Maximum tolerated dose assessment after daily oral administration for 14 days in the pig", "type": "in vivo, pigs (large white×landrace×pietrain)", "text": "The aims of this study were to establish a MTD and the kinetics of sodium meta-arsenite after repeated administration to pigs.\nSodium meta-arsenite was formulated using enteric-coated capsules (size no. 2) for a toxicology study in pigs. Cellulose-based clear capsules contained 1) sodium meta-arsenite as an active ingredient, 2) microcrystalline cellulose and colloidal silicon dioxide as excipients. The coating material of the capsules comprised of Eudragit L 12.5 (acrylic polymer) and Macrogol 6000 (polyethylene glycol as softener). It is resistant to gastric fluid at least for 1 hour.\nThe oral route was selected, as it is the intended route of administration in human. Based on previous studies, the following doses were selected: 7.5 and 10 mg/pig (equivalent to 24.5 and 32.5 mg/man). Capsules (enteric coated, size no. 2) of sodium meta-arsenite in concentrations of 7.5 and 10 mg/capsule, formulations, were stored in a refrigerator in the dark. Each dose was administered orally by gavages to groups of 12 male growing pigs (large white×landrace×pietrain) for 14 days, followed by a 14-day recovery period. The mean weight of the pigs was 16.8±2.3 kg at the beginning of the study.\nMortality and viability were checked twice daily, clinical examinations were performed daily and body weight was recorded twice a week. Scheduled termination was performed on day 29 (after 14 days of recovery). Macroscopic examination was performed on all animals and samples from brain (cerebellum, mid brain, cortex), heart, kidney, liver, lung, spleen, stomach wall, small intestine and large intestine taken for histopathology.\nBlood samples (10 ml) of both dose groups were collected for hematology and biochemistry analysis on days −2, −1, 0, 7, 14, 21, 28. The samples collected during the treatment period were taken prior to the administration of the next drug. […]"}, "[4]": {"system": "panel of forty-one (41) human cancer cell lines", "assay": "Cytotoxic activity, panel of forty-one (41) human cancer cell lines", "from_the_text": "In a next study, the cytotoxic activity of sodium meta-arsenite was head-to-head compared with arsenic trioxide in panels loaded with 41 cancer cell lines from ten human cancers."}, "[5]": {"settings": "panel of 41 human cancer cell lines"}}, "note": "pIC50: −log10 of the molar value. “And” between values parts separate entries of the source, which are not always exact repeats. Equal values may be shown once.", "data": [{"smiles": "O=[As][O-].[Na+]", "note": "[Sodium meta-arsenite, sodium meta-arsenite]", "values": [{"measurement": "Findings", "setting": "[1]; 10 mg/kg/day oral gavage 14 days, mouse", "value": "No findings were noted"}, {"measurement": "Findings", "setting": "[1]; 16 mg/kg/day oral gavage 14 days, mouse", "value": "Piloerection on the head was noted for one male on days 4 and 5"}, {"measurement": "Findings (mortality)", "setting": "[1]; 26 mg/kg/day oral gavage 14 days, mouse", "value": "No unscheduled mortality occurred"}, {"measurement": "Findings (mortality)", "setting": "[1]; 41 mg/kg/day oral gavage 14 days, mouse", "value": "All males died on days 2-4 and all females on days 2-7"}, {"measurement": "Findings (mortality)", "setting": "[1]; 65 mg/kg/day oral gavage 14 days, mouse", "value": "All animals died on days 2 or 3, all females died on day 1 or 2"}, {"measurement": "MTD (or LD10 value)", "setting": "[1]; mice, males and females, oral once daily 14 days, calculated", "value": 32, "unit": "mg/kg/day"}, {"measurement": "MTD", "setting": "[1]; mouse, oral once daily 14 days", "value": 96, "unit": "mg/m^2/day"}, {"measurement": "Findings", "setting": "[2]; 6 mg/kg/day oral gavage 14 days", "value": "No findings were noted"}, {"measurement": "Findings", "setting": "[2]; 11 mg/kg/day oral gavage 14 days", "value": "Hunched posture was noted in one male from day 7-13 of treatment, diarrhea was observed for one male on day 6"}, {"measurement": "Findings", "setting": "[2]; 19 mg/kg/day oral gavage 14 days", "value": "Hunched posture (day 6-14 of treatment) was noted in 2 males"}, {"measurement": "Findings (mortality)", "setting": "[2]; 35 mg/kg/day oral gavage 14 days", "value": "One male was found dead on day 13 of treatment, all females died between days 3 to 6"}, {"measurement": "Findings (mortality)", "setting": "[2]; 63 mg/kg/day oral gavage 14 days", "value": "All animals died on days 2 to 5"}, {"measurement": "MTD (or LD10 value)", "setting": "[2]; females", "value": 25, "unit": "mg/kg/day"}, {"measurement": "MTD (or LD10 value)", "setting": "[2]; males", "value": 33, "unit": "mg/kg/day"}, {"measurement": "Hematological and biochemical parameters", "setting": "[3]; 7.5 and 10 mg/pig, 14 days", "value": "No (statistical) significant differences"}, {"measurement": "Mortality", "setting": "[3]; 7.5 and 10 mg/pig, enteric-coated capsules, 14 days + 14-day recovery", "value": "No pigs died or were killed in extremis"}, {"measurement": "Drug related side effects", "setting": "[3]; pigs at the doses of 7.5 and 10 mg/day", "value": "did not induce any drug related side effects"}, {"measurement": "activity in panel of 41", "setting": "[4]; 0.01 μg/ml and 0.001 μg/ml", "value": "showed no activity"}, {"measurement": "cancer cell lines that responded, out of forty one (41)", "setting": "[4]; 0.1 μg/ml", "value": 16}, {"measurement": "cancer cell lines that responded, percent of 41", "setting": "[4]; 1 μg/ml, more than 70% growth inhibition", "value": 80, "unit": "%"}, {"measurement": "cancer cell lines in which active, percent of 41", "setting": "[4]; 10 μg/ml", "value": 100, "unit": "%"}, {"measurement": "selectivity (individual IC70<½ mean IC70), fraction of cell lines", "setting": "[4]; breast (mammary) cancer cell lines", "value": "¾"}, {"measurement": "fold more potent than arsenic trioxide", "setting": "[4]; conclusion of in vitro data", "value": "at least 10 fold"}, {"measurement": "selectivity (individual IC70<½ mean IC70), fraction of cell lines", "setting": "[4]; leukemia cell lines", "value": "¾"}, {"measurement": "selectivity (individual IC70<½ mean IC70), fraction of cell lines", "setting": "[4]; melanoma cell lines", "value": "4/7"}, {"measurement": "Mean IC50", "setting": "[4]; [5]", "value": 0.129, "unit": "µg/mL"}, {"measurement": "Mean IC70", "setting": "[4]; [5]", "value": "0.329 μg/ml and 2.53 μM"}, {"measurement": "Mean IC90", "setting": "[4]; [5]", "value": 1.691, "unit": "µg/mL"}, {"measurement": "Mean IC70", "setting": "[4]; panel of 41 human cancer cell lines, listed as sodium meta-arsenite", "value": "0.329 μg/ml and 2.53 μM"}, {"measurement": "pIC50", "setting": "[4]; read-out: Mean IC50, panel of 41 human cancer cell lines", "value": 6.00}, {"measurement": "IC90", "setting": "[4]; read-out: Mean IC90, panel of 41 human cancer cell lines", "value": 13, "unit": "µM"}]}]}
